Earlier results in patent publication US7326706B2, “Pyrazine modulators of cannabinoid receptors” (Bristol-Myers Squibb Company, priority 2003, dated 2008).

What was measured:
[1] = chronic administration for two weeks
[2] = 16 week trial period

Row | SMILES | body weight [1] | body weight in human subjects [2]
1 | Cc1c(C(=O)NN2CCCCC2)nn(-c2ccc(Cl)cc2Cl)c1-c1ccc(I)cc1 [AM-251] | substantial body weight reduction | –
2 | Cc1c(C(=O)NN2CCCCC2)nn(-c2ccc(Cl)cc2Cl)c1-c1ccc(Cl)cc1 [SR-141716] | – | dose-dependently reduced body weight
